In ChEMBL document CHEMBL1127611 (J Med Chem, 1994):

The compounds below were run against T1, Vesicular acetylcholine transporter (Torpedo californica, UniProt P81721) (assay: In vitro binding affinity to vesamicol receptor using [3H]vesamicol.).
T1 sequence (P81721 whole entry): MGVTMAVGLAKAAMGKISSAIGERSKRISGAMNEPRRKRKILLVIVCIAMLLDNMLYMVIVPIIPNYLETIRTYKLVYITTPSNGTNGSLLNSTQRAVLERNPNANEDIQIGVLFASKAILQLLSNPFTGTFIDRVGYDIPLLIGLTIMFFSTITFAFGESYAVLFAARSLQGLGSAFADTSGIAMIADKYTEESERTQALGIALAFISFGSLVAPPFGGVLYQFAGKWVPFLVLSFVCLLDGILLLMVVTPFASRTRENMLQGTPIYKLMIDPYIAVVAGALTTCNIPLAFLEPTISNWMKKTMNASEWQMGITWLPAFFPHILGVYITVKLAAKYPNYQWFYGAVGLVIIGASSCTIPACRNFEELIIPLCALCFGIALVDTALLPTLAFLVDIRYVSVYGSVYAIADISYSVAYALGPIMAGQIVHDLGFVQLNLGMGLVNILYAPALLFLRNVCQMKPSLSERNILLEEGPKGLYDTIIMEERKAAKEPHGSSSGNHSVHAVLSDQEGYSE
Set-up: species or system Tetronarce californica

| SMILES | Ki [nM] |
| --- | --- |
| O[C@@H]1CCN(Cc2ccccc2I)C[C@H]1N1CCC(c2ccccc2)CC1 | 0.147 |
| O[C@@H]1CCN(Cc2ccc(I)cc2)C[C@H]1N1CCC2(CCc3ccccc32)CC1 | 0.8 |
| O[C@@H]1Cc2ccccc2C[C@H]1N1CCC2(C=Cc3c(Br)cccc32)CC1 | 0.212 |
| O[C@@H]1CCCC[C@H]1N1CCC2(CCc3ccccc32)CC1 | 7.59 |
| O[C@@H]1CCN(Cc2cccc(I)c2)C[C@H]1N1CCC2(CCCc3ccccc32)CC1 | 0.856 |
| O[C@@H]1Cc2ccccc2C[C@H]1N1CCC2(CC1)C(Br)=Cc1ccccc12 | 0.41 |
| O[C@@H]1Cc2ccccc2C[C@H]1N1CCC2(C=Cc3ccc(Br)cc32)CC1 | 1.4 |
| O[C@@H]1Cc2ccccc2C[C@H]1N1CCC2(C=Cc3cc(Br)ccc32)CC1 | 0.271 |
| O[C@@H]1CCN(Cc2ccccc2I)C[C@H]1N1CCC2(CCc3ccccc32)CC1 | 0.98 |
| O[C@@H]1CCN(Cc2cccc(I)c2)C[C@H]1N1CCC(c2ccccc2)CC1 | 0.063 |
| O[C@@H]1CCN(Cc2ccccc2I)C[C@H]1N1CCC2(CCCc3ccccc32)CC1 | 5.8 |
| O[C@@H]1CCN(Cc2ccc(I)cc2)C[C@H]1N1CCC(c2ccccc2)CC1 | 0.05 |
| O[C@@H]1CCN(Cc2ccc(F)cc2)C[C@H]1N1CCC2(CCCc3ccccc32)CC1 | 2.64 |
| O[C@@H]1CCN(Cc2cccc(I)c2)C[C@H]1N1CCC2(C=Cc3ccccc32)CC1 | 0.264 |
| O[C@@H]1CCN(Cc2ccccc2I)C[C@H]1N1CCC2(C=Cc3ccccc32)CC1 | 0.798 |
| O[C@@H]1CCN(Cc2ccc(I)cc2)C[C@H]1N1CCC2(CCCc3ccccc32)CC1 | 0.638 |
| O[C@@H]1CCCC[C@H]1N1CCC2(C=Cc3ccccc32)CC1 | 6.93 |
| Nc1cccc2c1C[C@@H](N1CCC(c3ccccc3)CC1)[C@H](O)C2 | 0.0065 |
| O[C@@H]1CCN(Cc2ccc(F)cc2)C[C@H]1N1CCC2(CCc3ccccc32)CC1 | 0.36 |
| O[C@@H]1Cc2ccccc2C[C@H]1N1CCC2(CCCc3ccccc32)CC1 | 18.4 |
| O[C@@H]1Cc2ccccc2C[C@H]1N1CCC2(CCc3ccccc32)CC1 | 0.36 |
| O[C@@H]1Cc2ccccc2C[C@H]1N1CCC2(C=Cc3ccccc32)CC1 | 0.121 |
| O[C@@H]1CCCC[C@H]1N1CCC2(CCCc3ccccc32)CC1 | 24.2 |
| O[C@@H]1CCN(Cc2ccc(F)cc2)C[C@H]1N1CCC2(C=Cc3ccccc32)CC1 | 0.248 |
| O[C@@H]1CCN(Cc2ccc(I)cc2)C[C@H]1N1CCC2(C=Cc3ccccc32)CC1 | 0.762 |
